Entries after “also recorded” stand apart in the source; their conditions may differ. Read-outs that look alike come from different tables or passages of the source. Each block holds one substance with its values, some of them ahead of it.
What was measured:
fibrin [1] = test: ELISA: competitive inhibition of fibronectin binding to fibrin by type 1 recombinant modules; settings: for maximum inhibition of Fn binding to fibrin: saturating concentration
Protocol: Fibrin-binding activity was also assessed by an ELISA. Fn was reacted with fibrin-coated microtiter plates and bound Fn was determined by incubation with a polyclonal rabbit anti-Fn antiserum followed by alkaline phosphatase-labeled anti-rabbit Ig. […] Thus, on a mole-per-mole basis, assuming complete attachment of all the fibrinogen applied to the polystyrene plate, total proteolytic conversion to fibrin, and accessibility of the binding sites, 0.8 moles of Fn per mole of fibrin were required to achieve maximum binding (assuming a molecular weight of 340 kDa for the fibrin hexamer and 440 kDa for the Fn dimer).
The recombinant Fn modules were used to inhibit the binding of Fn to the fibrin-coated microtiter plates. […] At this saturating concentration, the binding of Fn to fibrin was inhibited by 70%.

fibrin [2] = test: Fibrin-SEPHAROSE affinity chromatography (binding and elution); design: species or system bovine
Protocol: Bovine fibrinogen was cross-linked to CNBr-activated SEPHAROSE™ (5 mg/ml beads) according to the manufacturer's instructions. Coupled fibrinogen was subsequently converted to fibrin by incubation with human thrombin to a final concentration of 5 NIH units/ml and 100 K.I. (kallikrein inhibitory) units/ml of aprotinin (in 0.05M Tris-HCI buffer, pH 7.6, containing 0.1M NaCl and 0.01M EDTA) for three hours, at room temperature (Gold, et al. (1983) Biochemistry 22, 4113-4119).
1.0M NaCl in 0.05M tris buffer, pH 8.0.
The fibrin-binding activity of the proteolytically derived 25.9 kDa fragment of Fn was determined by its ability to bind to a fibrin affinity matrix. […] FBB was used to equilibrate and wash the column. Following warming of the column to 22° C., the column was washed with FBB until absorbance at 280 nm (A280) was less than 0.01, and bound protein eluted with 0.05M Tris-HCl, 0.5M NaCl, 6M urea buffer, pH 7.6.
The module (500 μg/1.0 ml) was incubated for 4 hours (while rotating) at 4° C. in the presence of 1.0 ml fibrin-SEPHAROSE™ (5 mg fibrin/ml SEPHAROSE™ beads) equilibrated in […] Tris-HCl, 0.1M NaCl buffer, pH 7.6.
The 11 KDa peptide (50 μg/0.206 ml) was radiolabeled using the IODO-BEAD method (Pierce Chemical). The peptide was added to one IODO-BEAD in the presence of 100 μCi ^125 I (17.4 Ci/mg, New England Nuclear) and incubated on ice for 10 minutes. The bead was removed and the free ^125 I removed by chromatography through a PD10 column containing SEPHADEX™ G-25 (Pharmacia). […] The radioiodinated 11 kDa fibrin-binding peptide (500 μg/1.5 ml) was combined with 1 ml of fibrin-SEPHAROSE™ (5 mg fibrin/ml beads) equilibrated with 50 mM Tris-HCl, 0.1M NaCl buffer, pH 7.6, and rotated for 4 hours, at 4° C. The mixture was poured onto a disposable column (0.6 cm×8.0) and the unbound protein washed through. The column was equilibrated to room temperature and washed with the equilibration buffer.

fibrin [3] = test: Binding of 35S-methionine labeled recombinant proteins (COS cell supernatants) to fibrin-SEPHAROSE, autoradiogram quantitation
Excerpt: Recombinant proteins from both the N-terminal and C-terminal fibrin binding sites of the Fn molecule were expressed by transfection into ^35 S-labeled (methionine) COS cells, as described by Schwarzbauer, J. Cell Biol., 113:1463-1473 and Sottile et al, J. Biol. Chem., 266:12840-12843, (1991) and their fibrin-binding activity determined by affinity chromatography experiment. The ^35 S-methionive labeled protein from the N-terminal site was a 10.5 kDa protein that comprised the ^4 F1.^5 F1 modules (^4 F1.^5 F1). The ^35 S-methionive labeled 25 kDa recombinant protein from the C-terminal fibrin binding site of Fn expressed by the COS cells commenced in the ^10 F1 and extended to the end of the molecule (^10 F1-end). For the affinity chromatography experiments each of the cell culture supernatants that contained the separately expressed proteins (1.5 ml) were combined with 0.4 ml of a fibrin-SEPHAROSE affinity matrix and incubated overnight at 4 C. with end over rotation. Upon removal of the supernatant by centrifugation, the matrices were washed extensively with FBB (10 times with a 0.5 ml wash volume each ); after each wash the matrices were centrifuged and the supernatants removed. […] Aliquots (50 ul) of each fraction was counted in a LS 6000 Scintilation Counter, the corresponding fractions pooled, and analyzed by SDS-PAGE followed by autoradiography. The autoradiograms were exposed for two weeks and scanned with a pdi Desktop Scanner. […] As a control, to indicate the relative level of expression of the recombinant proteins and to confirm their position in the autoradiograms, an aliquot of each COS cell culture supernatant was immunoprecipited with an anti-fibronectin antibody and compared with the ^35 S-labeled proteins retained by the fibrin affinity chromatography matrices by SDS-PAGE and autoradiography. […] The Protein A-Sepharose beads were separated by centrifugation, washed two times with Tris-buffered saline, resuspended in Laemmli sample buffer and applied to SDS-PAGE.
FIG. 30 illustrates the binding of ^35 S-methionine labeled recombinant modules from both the N- (^4 F1.^5 F1) and C-terminal (^10 F1-end) fibrin binding sites of Fn to fibrin-SEPHAROSE affinity matrices. […] The results of the autoradiograms are represented by the graphs which indicate the image analysis of the bound recombinant proteins.

fibrin [4] = settings: for IC50: read-out: IC50, 50% inhibition of binding of biotinylated Fn to fibrin, 200 ng fibrin, 1 hour 22° C.
Protocol: Since the anti-Fn detection system described for the ELISA above could not be used in Fn competition assays employing the intact Fn molecule or the 25.8 kDa proteolytic fragment, purified Fn was biotinylated using water soluble NHS-LC-Biotin (Pierce Chemm. Co.; according to the manufacturer's instructions) and binding to fibrin detected by alkaline phosphatase conjugated streptavidin (diluted 1/500 in FBBT/BSA) for 1 hour at 22° C., followed by the addition of p-nitrophenyl phosphate, as described above. To ensure that the biotinylation of the Fn had not affected its ability to bind to fibrin, fibrin-binding activity was tested by incubating increasing concentrations of biotinylated Fn (10-300 ng/0.1 ml FBB) with the fibrin-coated wells (200 ng) and detected (see FIG. 28A) using alkaline phosphatase-conjugated streptavidin and the reaction developed as described for Direct Elisa.
To compare the relative fibrin-binding affinities of the ^4 F1.^5 F1 recombinant module pair and the 25.9 kDa proteolytic fragment (^1 F1-^5 F1) with that of the native Fn molecule, these purified proteins were competed with biotinylated plasma Fn for binding to fibrin coated wells and the extent of inhibition of binding assessed by incubation with alkaline phosphatase-conjugated streptavidin. […] Biotinylated Fn (100 ng/0.1 ml FBB: 2.3 nM) was combined with increasing concentrations (0-10 μM) of either unlabeled Fn, the 25.9 kDa proteolytic fragment, or the separate ^4 F1.^5 F1, and ^10 F1 recombinant modules and incubated with the fibrin-coated microtiter wells for 1 hour at 22° C. […] Bound biotinylated Fn was quantitated as described above.

fibrin [5] = test: Direct binding ELISA on fibrin-coated microtiter plates; settings: for binding to fibrin-coated wells: ELISA, room temperature, 1 hr
Protocol: The preparation of fibrin coated microtiter plates was adapted from a method described by Christman et al., Biochim. Biophys. Acta. […] Microtiter (Immulon) plates were coated with fibrinogen at a concentration of 50-1000 ng/well/0.1 ml of Tris buffered saline (TBS). The plates were dried for 24 hours at 37° C. and 0.1 ml of thrombin (20 NIH units/100 ml) containing TRASYLOL™ (aprotinin) (400 K.I units/100 ml) in TBS was added to each well and the plates incubated for 2 hours at 37° C. Each well is washed one time with PBS and the plates are blocked for 1.5 hours with 1% BSA in TBS to prevent non-specific binding. A constant concentration of fibronectin and the 11 kDa fibrin-binding polypeptide (500 ng/0.1 ml) in 50 mM Tris-HCl, 0.1M NaCl, pH 7.6 (FBB) were incubated separately with fibrin coated microtiter wells (50-1000 ng) for 1 hr at room temperature (23° C.).
The wells were washed three times with FBB containing 0.05% Tween 20 (FBBT) and incubated for 1 hour with 0.05 ml of the a polyclonal anti-fibronectinantiserum (Calbiochem) or the purified IgG fraction of anti-11 kDa rabbit antisera, respectively, at a concentration of 1 μg/ml in FBBT containing 0.1% BSA (FBBT/BSA). Following three washes with FBBT, the wells were incubated with 0.05 ml of alkaline phosphatase labeled goat anti-rabbit IgG (TAGO) at a concentration of 2 μg/ml in FBBT/BSA, for 1 hour. The reaction was developed with 0.05 ml of […] p-nitrophenyl phosphate (Sigma phosphatase substrate tablets) in 10% diethanolamine, pH 9.8 containing 1 mM MgCl2.
2. […] Binding of ^4 F1.^5 F1 to fibrin coated microtiter plates was examined by ELISA as described above. Microtiter wells were coated with fibrin (50-1000 ng) and blocked, as described earlier, and incubated with the module pair ^4 F1.^5 F1 (500 ng/0.1 ml or 1000 ng/0.1 ml in FBB) for 1 hour, at room temperature.
Fibrin-binding activity was also assessed by an ELISA. Fn was reacted with fibrin-coated microtiter plates and bound Fn was determined by incubation with a polyclonal rabbit anti-Fn antiserum followed by alkaline phosphatase-labeled anti-rabbit Ig.

fibrin [6] = test: Reversibility (displacement) of 125I-11 kDa FBP binding to fibrin; settings: negative control
Protocol: Detachable microtiter wells previously coated with 15 ng of fibrin were incubated with 100 ng/0.1 ml FBB (90 nM) of ^125 I-11 kDa for 1 hour at 22° C. The unbound radiolabeled protein was removed by extensive washing with FBB containing 0.1% Tween 20. […] The iodinated 11 kDa that remained bound to the removable wells was determined by quantitating the radioactivity attached to the individual wells in a gamma counter. Results were expressed as percentage of control wells incubated with buffer alone.

[7] = 35S-methionine labeled, optical density of autoradiogram

Substance: ^7 F1: recombinant seventh type 1 module from human fibronectin, residues 434-484 of SEQ ID NO:1 [reference compound]
inhibition of the binding of Fn to fibrin (non-binding modules) (fibrin [1]; up to 5,000-50,000 molar excess compared to Fn): < 20%
binding to fibrin-Sepharose (fibrin [2]): did not bind

Substance: t-PA type 1 module: single type 1 module from tissue plasminogen activator (CRDEKTQMIYQQHQSWLRPVLRSNRVEYCWCNSGRAQCH) [reference compound]
maximum inhibition of Fn binding to fibrin (fibrin [1]): 55%

Substance: ^4 F1.^5 F1: recombinant 93 amino acid module pair, fourth and fifth type 1 modules of human fibronectin, residues 152-244 of SEQ ID NO:1
relative affinity for fibrin (fibrin [3]): lower affinity
% of bound protein released by warming to 22° C. (fibrin [3]; [7]): 88%
concentration at which maximum inhibition was achieved (fibrin [1]; Fn 2.3 nM): 10 µM
molar excess at maximum inhibition (fibrin [1]; Fn 2.3 nM): 5,000
molar excess over Fn at 50% inhibition (fibrin [1]; Fn 2.3 nM): 325
IC50 (fibrin [1]; Fn 100 ng (2.3 nM), fibrin 200 ng, read-out: concentration decreasing Fn binding to fibrin to 50%): 0.75 µM
maximum inhibition of Fn binding to fibrin (fibrin [1]): 70%
amount relative to antibody (w/w) used to obtain maximal inhibition (fibrin [4]): 16 times
blocked binding of fibronectin to fibrin (summary, FIG. 29) (fibrin [4]): 36%
maximal inhibition of biotinylated Fn binding to fibrin (fibrin [4]; 10 μM of protein (5,000 molar excess)): 67%
maximum inhibition of Fn binding to fibrin (FIG. 29) (fibrin [4]; 0.1-25 μg inhibitor, biotinylated Fn 100 ng, fibrin 200 ng): 67%
IC50 (fibrin [4]; biotinylated Fn 2.3 nM): 0.7 µM
elution of protein remaining bound after warming to 22° C. with 1.0M urea and finally 2.0M urea (fibrin [2]): eluted all the remaining bound
elution of protein remaining bound after warming to 22° C. with 1.0M NaCl (fibrin [2]; 18% of total protein applied remained bound): could not be eluted
% of protein applied eluted on warming the column to 22° C. (room temperature) (fibrin [2]; FBB buffer): 9%
% of protein applied eluted with 0.5M NaCl, 6.0M urea buffer (fibrin [2]; after warming to 22° C.): 18%
% of protein applied retained by fibrin-SEPHAROSE (fibrin [2]; binding at 4° C., 500 μg applied): 27%
% of protein applied retained by fibrin-Sepharose with increasing amounts applied (fibrin [2]; increasing amounts applied to a fixed volume of fibrin-Sepharose): 25%
binding to fibrin-coated wells (fibrin [5]): bound to fibrin

Substance: egg lysozyme: unrelated protein employed as negative control
displacement of bound 125I-11 kDa FBP (fibrin [6]): unable to disrupt; also recorded: unable to displace

Substance: ^10 F1-end: 25 kDa recombinant protein from COS cells commencing in the tenth type 1 module and extending to the end of fibronectin
relative affinity for fibrin (fibrin [3]): higher relative affinity
% of bound protein released by warming to 22° C. (fibrin [3]; [7]): 35%
% of bound protein requiring 6M urea in 0.5M NaCl for elution (fibrin [3]; [7]): 65%

Further lines, with some results ahead:

inhibition of biotinylated Fn binding (non-fibrin-binding modules) (fibrin [4]; 0-10 μM competitor, biotinylated Fn 2.3 nM): 10%
binding to fibrin-Sepharose (fibrin [2]): did not bind
Substance: ^10 F1: recombinant 46 amino acid tenth type 1 module from human fibronectin, residues 2141-2186 of SEQ ID NO:1 [reference compound]
fibrin binding as single module (fibrin [4]): did not, as a single module, exhibit fibrin-binding

concentration required for complete inhibition of biotinylated Fn binding (fibrin [4]; biotinylated Fn 2.3 nM): 2.2 µM
IC50 (fibrin [4]; biotinylated Fn 2.3 nM): 0.02 µM
amount giving maximum binding per 550 ng of fibrin (fibrin [5]): approximately 500 ng
concentration at saturation of binding to fibrin (fibrin [5]; 200 ng Fn to 200 ng of fibrin (5.88 nM)): ~4.54 nM
moles per mole of fibrin required to achieve maximum binding (fibrin [5]; assuming 340 kDa fibrin hexamer, 440 kDa Fn dimer): 0.8
Substance: fibronectin: purified intact human plasma fibronectin, 440 kDa dimer [reference compound]
molar excess required for complete inhibition (fibrin [4]; biotinylated Fn 2.3 nM): 1000
binding to fibrin-coated wells (fibrin [5]): bound to the fibrin-coated wells in a concentration dependent manner

Source: patent US5792742A, “Fibrin-binding peptide fragments of fibronectin” (New York University, priority 1994, dated 1998)
